In patent US20120213789A1, “New Molecular Target for Treatment of Cancer” (priority 2001, published 2012):

Key:
[1] = test system: LNCaP Prostate Cell Line; assay: Dual label UROC28/Bcl-2 flow cytometry after SPB treatment; type: cell-based, human
Description: (§1) Cells were grown to 70-80% confluence at 37° C. and 5% CO2 in T-75 tissue culture plastic flasks. SPB stock solution was added to final concentrations of 0.5, 5.0, 10.0, and 25.0 mM in appropriate fresh media to the cell cultures. Cells were incubated at 37° C. and 5% CO2 for 72 hours. Attached cells were then harvested using a solution of 0.05% trypsin and 0.53 mM EDTA (Invitrogen Corp.). Attached cells were then pooled with any the detached cells and washed with PBS pH 7.2. Cell numbers and percent viability were determined using Trypan blue dye exclusion and a hemacytometer. At the time of their use in an experiment the viability was usually about 85% for untreated cells and a range of about 15-70% for treated cells, with the lower viabilities found at higher SPB concentrations (Thompson C, 1995; Cory et al., 1998; van Engeland et al., 1996).
(§2) UC28(C) is 2.14 mg/ml rabbit polyclonal aliquot directed against the inventors' UC28 patented biomarker developed by UCor R&D gene discovery program. The Antibody was produced against a twenty amino acid (AA) synthetic peptide from the predicted AA sequence (AA 21-37) UCor, Inc. 840 Research Parkway Oklahoma City, Okla. 73104.
(§3) Goat Anti-Rabbit CY5 polyclonal Fluorchrome was used as the secondary conjugate for UC28 C rabbit polyclonal antibody and a background control for UC28 C polyclonal. Vendor is Jackson ImmunoResearch Laboratories, Inc. 872 West Baltimore Pike, P.O. Box 9 West Grove, Pa. 19390.
Bc12 IgG1 kappa-FITC isomer 1 is a purified monoclonal mouse specific for Bc1-2 protein. Vendor is Dalco Corporation 6392 Via Real, Carpinteria, Calif. 93013 USA.
MsIgG1 kappa-FITC isomer 1 is a purified isotype specific control for Bc1-2 monoclonal antibody. Vendor is Dako Corporation 6392 Via Real, Carpinteria, Calif. 93013 USA.
Cytofix/Cytoperm™ ICit enables fixation and permeabilization of cells prior to staining with fluorochrome-conjugated antibodies. Vendor is BD-PharMingen, 10975 Torreyana Road, San Diego, Calif. 92121-1106.
(§4) A Coulter Elite engineered with a triple laser system was used to analyze all samples. Coulter control beads were used to align lasers for the dual label testing of cell samples. Laser alignment was required for both the Argon (488 nm line) laser and HeNe (633 nm line) laser. These alignments were performed prior to all measurements with the Argon laser (488 nm line) using fluorophores for FITC, RPE, PI and the HeNe laser (633 nm line) for the Cy5 fluorophores being used for the experiments described below. The histographs, voltage settings, gates, color compensation, and pressures were established prior to all sample processing.
(a) Tissue culture cells (MLC-SV40, LNCaP and C 4-2B) were aliquoted at concentration of 1×10^6 per teach 12×75 mm polystyrene tube. […]

[2] = test system: LNCaP Prostate Cell Line; assay: Dual label UC28/AnnexinV flow cytometry after SPB treatment; type: cell-based, human; settings: for Total AnnexV / Total UC28C: 72 hours, UC28-GAR-CY5/AnnexV-FITC
Description: as §1
VO1 Apoptosis Detection Kit contains: (1) Fluorocein-isothiocyante (FITC) conjugated AnnexinV [AnnexinV01] 1 ml (2) Propidium Iodide [Annex-Pi] 2.0 ml (3) 4× Binding Buffer [Annex-B] 20.0 ml. Vendor is CalTag Laboratories, Inc., 1849 Bayshore Boulevard #200 Burlingame, Calif. 94010.
as §2, §3
MsIgG-FITC mouse conjugated-FITC was used for background control for AnnexinV01. Vendor is Becicman Coulter, Inc. Diagnostic Division, 11800 SW 147th Ave. M/S 42-003, P.O. Box 169015, Miami, Floridia 33116-9015.
as §4, with “processing. […]” for “processing.”
UC28 and Annexin V were co-labeled in the three cell lines to assess the induction of UC28 by SPB and its correlation to the induction of apoptosis. […] It may be noted that in previously published experiments, AnnexinV and PI were run in combination with several prostate cancer cell lines, one of which was LNCaP, but not with C4-2B or MLC-SV40. It was determined that they produced similar dose-response kinetics when exposed to 0.5-25 mM of SPB for 72 hours (Ng et al., 1989). That is, as the dose of SPB increased, so did the membrane perturbation events measured by these two methods.

## O=C([O-])CCCc1ccccc1.[Na+] [SPB, 4-Phenylbutyric Acid, Sodium Salt]
[1]; 5.0 mM SPB
  Total Bcl-2: 23.8%
  Total UC2BC: 87.7%
[1]; 10 mM SPB
  Total Bcl-2: 15.6%
  Total UC2BC: 83.0%
[2]; 0.5 mM SPB
  Total AnnexV: 10.6%
  Total UC28C: 28.0%
[2]; 5.0 mM SPB
  Total AnnexV: 44.7%
  Total UC28C: 55.8%
[2]; 10 mM SPB
  Total AnnexV: 33.6%
  Total UC28C: 66.4%
[2]; 25 mM SPB
  Total AnnexV: 89.2%
  Total UC28C: 67.4%
[2]; SPB, summary of Table 5
  UC28 up regulation: up regulated
  induction of apoptosis: induced
